The values below come from patent publication EP4786470A1, “METHOD FOR S[…]-CIT LINEAR PRECURSOR WITH HIGH PURITY, AND METHOD FOR PREPARING [18F]FP-CIT BY USING SAME” (The Asan Foundation, priority 2023, dated 2025).

Molecules are shown by their SMILES. Values joined by “and” are separate entries in the source; they are usually repeats but may differ in a detail not shown here. Identical values can stand only once.

For series [1] the following is noted: cited from earlier work.
A short description of series [2]: Storage stability of FP-CIT linear precursor in storage solvent (purity over 12 months by HPLC analysis). The class given is physicochemical. On the procedure: HPLC analysis was carried out using the same experimental method and analytic conditions as in Example 1-1, except that the storage temperature was -20°C. […] The purity of the FP-CIT linear precursor over time is summarized in FIG. 4 and the following Table 3.
HPLC analysis was carried out using the same experimental method and analytic conditions as in Example 1-1, except that the storage concentration was 8 mg/mL. […] The purity of the FP-CIT linear precursor over time is summarized in FIG. 5 and the following Table 4.
HPLC analysis was carried out using the same experimental method and analytic conditions as in Example 3-1, except that the storage temperature was -20°C. […] The purity of the FP-CIT linear precursor over time is summarized in FIG. 5 and the following Table 4.

Consider `CCOC(C)=O` [Ethyl acetate (EA), Ethyl acetate], for which the “Water solubility (g/100 mL, 20°C)” value in series [1] is 8.3 g/100 mL.
In the case of `ClCCl` [Dichloromethane (DCM), Dichloromethane], the “Water solubility (g/100 mL, 20°C)” value in series [1] is given as 1.6 g/100 mL.
On to `COC(=O)C1C(c2ccc(I)cc2)CC2CCC1N2CCCOS(C)(=O)=O` (stereo not drawn) [FP-CIT linear precursor], for which the “purity of the FP-CIT linear precursor” value in series [2] (CHCl3, 1 mg/mL, -20°C, 0 months (start of storage assumed 100%)) was 100.0%; in series [2] (CHCl3, 1 mg/mL, -20°C, 3 months) it was 79.4%; in series [2] (CHCl3, 1 mg/mL, -20°C, 5 months), 65% and 65.1%; in series [2] (CHCl3, 1 mg/mL, -20°C, 7 months) it was 57.1%; in series [2] (CHCl3, 1 mg/mL, -20°C, 9 months) it was 53.2%; in series [2] (CHCl3, 1 mg/mL, room temperature, 0 months (start of storage assumed 100%)) it was 100.0%. Besides, the “purity of the FP-CIT linear precursor” value stood at 60.4% in series [2] (CHCl3, 1 mg/mL, room temperature, 3 months); 2.2% in series [2] (CHCl3, 1 mg/mL, room temperature, 7 months); 0.7% in series [2] (CHCl3, 1 mg/mL, room temperature, 9 months); 100.0% in series [2] (DCM, 1 mg/mL, -20°C, 0 months (start of storage assumed 100%)); 93.5% in series [2] (DCM, 1 mg/mL, -20°C, 3 months); 73.2% in series [2] (DCM, 1 mg/mL, -20°C, 7 months). For the same compound, the “purity of the FP-CIT linear precursor” value was 71.3% in series [2] (DCM, 1 mg/mL, -20°C, 9 months); 100.0% in series [2] (DCM, 1 mg/mL, room temperature, 0 months (start of storage assumed 100%)); 47.0% in series [2] (DCM, 1 mg/mL, room temperature, 3 months); 34% and 34.2% in series [2] (DCM, 1 mg/mL, room temperature, 5 months); 30.9% in series [2] (DCM, 1 mg/mL, room temperature, 7 months); 13.1% in series [2] (DCM, 1 mg/mL, room temperature, 9 months). Also, the “purity of the FP-CIT linear precursor” value in series [2] (EA, 1 mg/mL, -20°C, 0 months (start of storage assumed 100%)) is 100.0%; in series [2] (EA, 1 mg/mL, -20°C, 1 month) it was 97.5%; in series [2] (EA, 1 mg/mL, -20°C, 3 months), 97.4%; in series [2] (EA, 1 mg/mL, -20°C, 5 months) it was 96.7%; in series [2] (EA, 1 mg/mL, -20°C, 7 months), 96.4%; in series [2] (EA, 1 mg/mL, -20°C, 9 months), 96.4%. The “purity of the FP-CIT linear precursor” value in series [2] (EA, 1 mg/mL, room temperature, 0 months (start of storage assumed 100%)) worked out at 100.0%; in series [2] (EA, 1 mg/mL, room temperature, 3 months) it was 91.2%; in series [2] (EA, 1 mg/mL, room temperature, 7 months), 39.8%; in series [2] (EA, 1 mg/mL, room temperature, 9 months) it was 28.4%; in series [2] (EA, 8 mg/mL, -20°C, 0 months (start of storage assumed 100%)), 100.0%; in series [2] (EA, 8 mg/mL, -20°C, 1 month) it was 99.3%. Moreover, the “purity of the FP-CIT linear precursor” value in series [2] (EA, 8 mg/mL, -20°C, 3 months) was 99.0%; in series [2] (EA, 8 mg/mL, -20°C, 7 months), 96.7%; in series [2] (EA, 8 mg/mL, -20°C, 9 months), 96.4%; in series [2] (EA, 8 mg/mL, room temperature, 0 months (start of storage assumed 100%)), 100.0%; in series [2] (EA, 8 mg/mL, room temperature, 3 months), 64.3%; in series [2] (EA, 8 mg/mL, room temperature, 5 months), 43% and 43.3%. The “purity of the FP-CIT linear precursor” value in series [2] (EA, 8 mg/mL, room temperature, 7 months) is on record as 16.2%; in series [2] (EA, 8 mg/mL, room temperature, 9 months), 13.5%; in series [2] (THF, 1 mg/mL, -20°C, 0 months (start of storage assumed 100%)) it was 100.0%; in series [2] (THF, 1 mg/mL, -20°C, 1 month), 98.0%; in series [2] (THF, 1 mg/mL, -20°C, 3 months), 96.7%; in series [2] (THF, 1 mg/mL, -20°C, 7 months), 95.1%. Moreover, the “purity of the FP-CIT linear precursor” value was determined as 94.7% in series [2] (THF, 1 mg/mL, -20°C, 9 months); 100.0% in series [2] (THF, 1 mg/mL, room temperature, 0 months (start of storage assumed 100%)); 89.9% in series [2] (THF, 1 mg/mL, room temperature, 3 months); 56.6% in series [2] (THF, 1 mg/mL, room temperature, 7 months); 25.6% in series [2] (THF, 1 mg/mL, room temperature, 9 months); 100.0% in series [2] (THF, 8 mg/mL, -20°C, 0 months (start of storage assumed 100%)). Moreover, the “purity of the FP-CIT linear precursor” value in series [2] (THF, 8 mg/mL, -20°C, 1 month) is 98.8%; in series [2] (THF, 8 mg/mL, -20°C, 3 months) it was 97.5%; in series [2] (THF, 8 mg/mL, -20°C, 7 months) it was 94.7%; in series [2] (THF, 8 mg/mL, -20°C, 9 months) it was 94.4%; in series [2] (THF, 8 mg/mL, -20°C, 12 months), 89% and 89.7%; in series [2] (THF, 8 mg/mL, room temperature, 0 months (start of storage assumed 100%)), 100.0%. Besides, the “purity of the FP-CIT linear precursor” value was 72.9% in series [2] (THF, 8 mg/mL, room temperature, 3 months); 30% and 30.4% in series [2] (THF, 8 mg/mL, room temperature, 5 months); 5.5% in series [2] (THF, 8 mg/mL, room temperature, 7 months); 5.5% in series [2] (THF, 8 mg/mL, room temperature, 9 months).
